Test results as given in ChEMBL document CHEMBL1150835, “In vitro antiplasmodial activity of extracts of Tristaniopsis species and identification of the active constituents: ellagic acid and 3,4,5-trimethoxyphenyl-(6'-O-galloyl)-O-beta-D-glucopyranoside” (J Nat Prod, 2001).
Converted amounts (≈) assume the structure as drawn.

Assays:
Plasmodium falciparum [1] = assay: Antiplasmodial activity after 24 hrs against chloroquine-resistant, mefloquine-sensitive Plasmodium falciparum W2 infected human erythrocytes by [G-3H]hypoxanthine uptake; type: functional, organism-based; details: W2, 24 h
Plasmodium falciparum [2] = assay: Antiplasmodial activity after 24 hrs against chloroquine-sensitive, mefloquine-resistant Plasmodium falciparum D6 infected human erythrocytes by [G-3H]hypoxanthine uptake; type: functional, organism-based; details: D6, 24 h
[3] = Cytotoxicity against HSF assessed as decrease in proliferation at 100 uM by MTT assay; parameters: scale not given: the % may be the effect or the level left; details: human
[4] = (§1) Cytotoxicity against human HepG2 cells assessed as decrease in proliferation at 100 uM by MTT assay; type: cell-based; details: HepG2 cells, read-out: Activity
HepG2 = assay: as §1; type: cell-based; details: hepg2, 100 µM

Row | Compound | IC50 (Plasmodium falciparum [1]) [µg/mL] | IC50 (Plasmodium falciparum [2]) [µg/mL] | Activity [3] | inhibition at 100 µM [4] [%] | Activity (HepG2)
1 | O=c1oc2c(O)c(O)cc3c(=O)oc4c(O)c(O)cc1c4c23 [ELLAGIC ACID] | 0.103 (≈ 0.341 µM) | 0.145 (≈ 0.48 µM) | 20% | 9 | 
2 | O=C(O)c1cc(O)c(O)c(O)c1 [GALLIC ACID] |  | > 5 |  |  | 
3 | O=C(O)c1ccc(O)c(O)c1 [PROTOCATECHUIC ACID] |  | > 5 |  |  | 
4 | OC(c1cc(C(F)(F)F)nc2c(C(F)(F)F)cccc12)C1CCCCN1 (configuration not stated) [MEFLOQUINE] | 0.00136 (≈ 0.00359 µM) |  |  |  | 
5 | O=C(O)c1ccc(O)cc1 [PARABEN] |  | > 5 |  |  | 
6 | COc1cc(O[C@@H]2O[C@H](COC(=O)c3cc(O)c(O)c(O)c3)[C@@H](O)[C@H](O)[C@H]2O)cc(OC)c1OC | 1.58 (≈ 3.18 µM) | 1.75 (≈ 3.5 µM) | Non-toxic |  | Non-toxic
